According to BindingDB's records for doi:10.7270/Q2H70D5W (University of Pittsburgh, 2007):

These compounds were tested against Gag-Pol polyprotein (Human immunodeficiency virus type 1 group M subtype B (isolate HXB2), UniProt P04585) (assay: concentration-response of HIV-1 RNase H blockers – biochemical, probe assessment, dose response (AID 652)). Details: pH 8; 23 °C.

**Q.** Cc1cc(C)c(C#N)c(=N)o1 [2-azanylidene-4,6-dimethyl-pyran-3-carbonitrile] was tested. Which IC50 did it give?
**A.** The IC50 was 0.298 µM.

**Q.** O=C1CCCC(=O)C1C(C#Cc1ccccc1)C1C(=O)CCCC1=O [3-hydroxy-2-[1-(2-hydroxy-6-keto-cyclohexen-1-yl)-3-phenyl-prop-2-ynyl]cyclohex-2-en-1-one] was tested. Which IC50 did it give?
**A.** The IC50 was 1.08 µM.

**Q.** How did the IC50 turn out when CCc1ccc(NC(=O)CSc2nc3cc(C(=O)OC)ccc3c(=O)n2Cc2ccco2)cc1 [2-[[2-(4-ethylanilino)-2-keto-ethyl]thio]-3-(2-furfuryl)-4-keto-quinazoline-7-carboxylic acid methyl ester] was run?
**A.** Its IC50 is 2.32 µM.

**Q.** CC(C)C1N=C2c3ccccc3N=C(SCC(=O)c3ccc(O)c(O)c3)N2C1=O (configuration not stated) [MLS000094866] was tested. Which IC50 did it give?
**A.** The IC50 was 0.59 µM.

**Q.** Cn1ccnc1P(=S)(c1nccn1C)N1CCOCC1 [MLS000054793] was tested. Which IC50 did it give?
**A.** Its IC50 is 11.8 µM.

**Q.** With O=C(CCCn1c(SCC(=O)c2ccc(O)c(O)c2)nc2ccccc2c1=O)NCC1CCCO1 (configuration not stated) [4-[2-[2-(3,4-dihydroxyphenyl)-2-oxoethyl]sulfanyl-4-oxoquinazolin-3-yl]-N-(oxolan-2-ylmethyl)butanamide] as the compound, how does the IC50 read?
**A.** The IC50 was 0.879 µM.

**Q.** For COc1ccc2ccccc2c1C1CC(=O)N2CN(C3CCCCC3)CSC2=C1C#N (configuration not stated) [3-cyclohexyl-8-(2-methoxynaphthalen-1-yl)-6-oxo-2,4,7,8-tetrahydropyrido[2,1-b][1,3,5]thiadiazine-9-carbonitrile], which IC50 is on record?
**A.** Its IC50 is 3.62 µM.

**Q.** Which IC50 does the source give for CCOC(=O)c1c(C)[nH]c(C(=O)CSc2nc3ccccc3o2)c1C [ethyl 5-[2-(1,3-benzoxazol-2-ylsulfanyl)ethanoyl]-2,4-dimethyl-1H-pyrrole-3-carboxylate] here?
**A.** The IC50 was 7.6 µM.

**Q.** With CC(C)c1ccc(C2CC(=O)N3CN(C)CSC3=C2C#N)cc1 (configuration not stated) [MLS000117258] as the compound, how does the IC50 read?
**A.** The IC50 was 10.7 µM.

**Q.** With Cc1ccccc1NC(=O)c1c(O)n2c3c(cccc3c1=O)CC2 [6-Hydroxy-4-oxo-1,2-dihydro-4H-pyrrolo[3,2,1-ij]quinoline-5-carboxylic acid o-tolylamide] as the compound, how does the IC50 read?
**A.** Its IC50 is 21.7 µM.

**Q.** For O=c1c(=Cc2cccn2-c2ccccc2)sc2nc3ccccc3n12 [2-[(1-phenyl-2-pyrrolyl)methylidene]-1-thiazolo[3,2-a]benzimidazolone], which IC50 is on record?
**A.** The IC50 was 2.83 µM.

**Q.** How did the IC50 turn out when C=CCn1c(SCC(=O)NC(=O)NCc2ccco2)nc2sc(C)c(C)c2c1=O [2-(5,6-dimethyl-4-oxidanylidene-3-prop-2-enyl-thieno[2,3-d]pyrimidin-2-yl)sulfanyl-N-(furan-2-ylmethylcarbamoyl)ethanamide] was run?
**A.** Its IC50 is 19 µM.

**Q.** How did the IC50 turn out when CCOC(=O)c1c(NC(=O)c2ccc(-n3cnnn3)cc2)sc2c1CCCC2 [2-[[4-(tetrazol-1-yl)benzoyl]amino]-4,5,6,7-tetrahydrobenzothiophene-3-carboxylic acid ethyl ester] was run?
**A.** Its IC50 is 2.81 µM.

**Q.** How did the IC50 turn out when CCOC(=O)c1c(N)sc2c1CCC1C(=O)N(C3CCCCC3)C(=O)C21 (configuration not stated) [2-amino-7-cyclohexyl-6,8-diketo-4,5,5a,8a-tetrahydrothien[2,3-e]isoindole-3-carboxylic acid ethyl ester] was run?
**A.** Its IC50 is 4.84 µM.

**Q.** With O=C(O)/C=C/c1ccc(O)c(O)c1 [3,4-Dihydroxycinnamate, XVII] as the compound, how does the IC50 read?
**A.** Its IC50 is greater than 50 µM.

**Q.** Which IC50 does the source give for Cc1cc(C)c(NC(=O)Cn2c(=O)n(Cc3ccco3)c(=O)c3ccccc32)c(C)c1 [2-[3-(2-furanylmethyl)-2,4-dioxo-1-quinazolinyl]-N-(2,4,6-trimethylphenyl)acetamide] here?
**A.** Its IC50 is 47.8 µM.

**Q.** For O=c1c(O)c(-c2ccc(O)cc2O)oc2cc(O)cc(O)c12 [2-(2,4-dihydroxyphenyl)-3,5,7-trihydroxychromen-4-one], which IC50 is on record?
**A.** The IC50 was 2.11 µM.

**Q.** For COc1cc(C(=O)Nc2oc(-c3ccccc3)c(-c3ccccc3)c2C#N)cc(OC)c1OC [MLS000051579], which IC50 is on record?
**A.** Its IC50 is 6.05 µM.

**Q.** For CCC1CCCCN1S(=O)(=O)c1ccc(S(=O)(=O)N2CCN(S(=O)(=O)CC)CC2)cc1 (configuration not stated) [1-Ethanesulfonyl-4-[4-(2-ethyl-piperidine-1-sulfonyl)-benzenesulfonyl]-piperazine], which IC50 is on record?
**A.** The IC50 was 12.3 µM.

**Q.** For O=S(=O)(NS1=CC=CCN1S(=O)(=O)c1ccccc1)c1ccccc1 (configuration not stated) [MLS000081951], which IC50 is on record?
**A.** Its IC50 is 4.33 µM.

**Q.** How did the IC50 turn out when Cc1ccc(-n2nc(C)c3c2NC(=O)CSC3c2ccc3c(c2)OCO3)cc1 (configuration not stated) [4-(1,3-benzodioxol-5-yl)-3-methyl-1-(4-methylphenyl)-2,4-dihydropyrazolo[3,4-e][1,4]thiazepin-7-one] was run?
**A.** Its IC50 is 5.2 µM.

**Q.** With COc1ccc(N2CCN(Cc3cc(=O)oc4cc(-c5ccccc5)c(O)cc34)CC2)cc1 [4-[[4-(4-methoxyphenyl)piperazin-1-yl]methyl]-6-oxidanyl-7-phenyl-chromen-2-one] as the compound, how does the IC50 read?
**A.** The IC50 was 3.86 µM.

**Q.** With Cc1ccc(-n2c(N)c(C(=O)N3CCOCC3)sc2=S)cc1 [4-amino-3-(4-methylphenyl)-5-(4-morpholinylcarbonyl)-1,3-thiazole-2(3H)-thione] as the compound, how does the IC50 read?
**A.** Its IC50 is 4.9 µM.

**Q.** With Cc1cccc(Nc2nnc(S)s2)c1C [5-(2,3-dimethylanilino)-3H-1,3,4-thiadiazole-2-thione] as the compound, how does the IC50 read?
**A.** Its IC50 is 3.59 µM.

**Q.** With CCOc1ccc(S(=O)(=O)Nc2cc(Sc3nnc[nH]3)c3oc(=O)sc3c2)cc1 [4-ethoxy-N-[2-oxo-7-(1H-1,2,4-triazol-5-ylsulfanyl)-1,3-benzoxathiol-5-yl]benzenesulfonamide] as the compound, how does the IC50 read?
**A.** The IC50 was 2.53 µM.

**Q.** Which IC50 does the source give for Cc1sc(-n2c(C)cc(C=Nn3cnnc3)c2C)c(C#N)c1C here?
**A.** Its IC50 is 2.22 µM.

**Q.** With CC1CCN(S(=O)(=O)c2ccc(NC(=O)Cn3nnc(-c4ccccc4)n3)cc2)CC1 [MLS000032813] as the compound, how does the IC50 read?
**A.** Its IC50 is 22 µM.

**Q.** Which IC50 does the source give for CCOc1cc(C2CC(=O)N3CN(C4CCCCC4)CSC3=C2C#N)ccc1O (configuration not stated) [3-cyclohexyl-8-(3-ethoxy-4-hydroxy-phenyl)-6-keto-2,4,7,8-tetrahydropyrido[2,1-b][1,3,5]thiadiazine-9-carbonitrile] here?
**A.** The IC50 was 19.5 µM.

**Q.** Cc1nn2c(-c3cccc(NC(=O)CSc4nc5ccccc5o4)c3)nnc2c2ccccc12 [2-(1,3-benzoxazol-2-ylsulfanyl)-N-[3-(6-methyl-[1,2,4]triazolo[3,4-a]phthalazin-3-yl)phenyl]acetamide] was tested. Which IC50 did it give?
**A.** Its IC50 is 3.71 µM.

**Q.** With O=C(NCc1ccco1)c1cc2cc3ccc(Cl)cc3nc2o1 [7-chloranyl-N-(furan-2-ylmethyl)furo[2,3-b]quinoline-2-carboxamide] as the compound, how does the IC50 read?
**A.** The IC50 was 19.2 µM.

**Q.** For CC(C)Cn1c(SCC(=O)NC(=O)Nc2ccc3c(c2)OCCO3)nc2ccccc2c1=O [MLS000057544], which IC50 is on record?
**A.** The IC50 was 4.47 µM.

**Q.** How did the IC50 turn out when c1ccc(-n2ncc3c2ncn2nc(-c4ccco4)nc32)cc1 [MLS000041701] was run?
**A.** The IC50 was 8.01 µM.

**Q.** For CCOc1cc(C2c3c(oc4cc(C)c(Cl)cc4c3=O)C(=O)N2Cc2ccco2)ccc1O (configuration not stated) [7-chloranyl-1-(3-ethoxy-4-oxidanyl-phenyl)-2-(furan-2-ylmethyl)-6-methyl-1H-chromeno[2,3-c]pyrrole-3,9-dione], which IC50 is on record?
**A.** The IC50 was 6.99 µM.

**Q.** For COc1ccc(CC(=O)Nc2ccc(-c3noc(-c4cccc(OC)c4)n3)cc2)cc1 [2-(4-methoxyphenyl)-N-[4-[5-(3-methoxyphenyl)-1,2,4-oxadiazol-3-yl]phenyl]acetamide], which IC50 is on record?
**A.** Its IC50 is 3.07 µM.

**Q.** With Cc1sc2nc(SCC(=O)NCc3ccco3)n(CCc3ccccc3)c(=O)c2c1C [2-(5,6-Dimethyl-4-oxo-3-phenethyl-3,4-dihydro-thieno[2,3-d]pyrimidin-2-ylsulfanyl)-N-furan-2-ylmethyl-acetamide] as the compound, how does the IC50 read?
**A.** Its IC50 is 3.86 µM.

**Q.** How did the IC50 turn out when CC1CC(C)(C)NC(=S)S1 (configuration not stated) [4,4,6-trimethyl-1,3-thiazinane-2-thione] was run?
**A.** Its IC50 is 5.24 µM.

**Q.** For CCOC(=O)C1CCCN(C(=O)Cn2sc3nc(C)cc(C)c3c2=O)C1 (configuration not stated) [1-[2-(3-keto-4,6-dimethyl-isothiazolo[5,4-b]pyridin-2-yl)acetyl]nipecotic acid ethyl ester], which IC50 is on record?
**A.** The IC50 was 9.03 µM.

**Q.** Which IC50 does the source give for Cc1ccc(-n2c(N)c(C(=O)N3CCN(C)CC3)sc2=S)cc1 [4-amino-3-(4-methylphenyl)-5-[(4-methyl-1-piperazinyl)carbonyl]-1,3-thiazole-2(3H)-thione] here?
**A.** The IC50 was greater than 50 µM.

**Q.** For COc1cccc(OCC(=O)Nc2c(C(=O)Nc3ccc(OC)cc3OC)oc3ccccc23)c1 [MLS000093002], which IC50 is on record?
**A.** The IC50 was 1.77 µM.

**Q.** COC(=O)N(c1ccccc1)P1(=S)OCCO1 [MLS000052970] was tested. Which IC50 did it give?
**A.** Its IC50 is 2.06 µM.

**Q.** Which IC50 does the source give for N#Cc1c(SCC(=O)Nc2nccs2)nc2c(c1-c1ccco1)CCCC2 [2-[[3-cyano-4-(2-furanyl)-5,6,7,8-tetrahydroquinolin-2-yl]thio]-N-(2-thiazolyl)acetamide] here?
**A.** Its IC50 is 4.3 µM.

**Q.** For O=C(Nc1nc(-c2ccncc2)cs1)c1ccco1 [MLS000053154], which IC50 is on record?
**A.** The IC50 was 5.64 µM.

**Q.** How did the IC50 turn out when CCOC(=O)N1CCC2=C(C#N)C(=N)C(C#N)(C#N)[C@H](c3ccc(OC(C)C)c(OCC)c3)[C@H]2C1 [(8S,8aR)-6-amino-5,7,7-tricyano-8-(3-ethoxy-4-isopropoxy-phenyl)-1,3,8,8a-tetrahydroisoquinoline-2-carboxylic acid ethyl ester] was run?
**A.** The IC50 was 21.7 µM.

**Q.** Cc1cccc(N2CCN(C(=O)Cn3sc4nc(C)cc(C)c4c3=O)CC2C)c1 (configuration not stated) [2-[2-keto-2-[3-methyl-4-(m-tolyl)piperazino]ethyl]-4,6-dimethyl-isothiazolo[5,4-b]pyridin-3-one] was tested. Which IC50 did it give?
**A.** Its IC50 is 4.28 µM.

**Q.** c1ccc(Cc2nnc3sc(-c4ccncc4)nn23)cc1 [3-(phenylmethyl)-6-pyridin-4-yl-[1,2,4]triazolo[3,4-b][1,3,4]thiadiazole] was tested. Which IC50 did it give?
**A.** Its IC50 is 1.81 µM.

**Q.** With C=CCc1c(C)nc(S)c(C#N)c1C [4,6-dimethyl-5-prop-2-enyl-2-sulfanylidene-1H-pyridine-3-carbonitrile] as the compound, how does the IC50 read?
**A.** Its IC50 is 7.25 µM.

**Q.** CN1CCN(C(=O)c2sc(=S)n(-c3ccccc3)c2N)CC1 [(4-amino-3-phenyl-2-sulfanylidene-1,3-thiazol-5-yl)-(4-methylpiperazin-1-yl)methanone] was tested. Which IC50 did it give?
**A.** Its IC50 is 2.29 µM.

**Q.** With COc1ccccc1CNC(=O)c1cc2c(=O)n(C)c3ccccc3c2n1C [4-keto-1,5-dimethyl-N-o-anisyl-pyrrolo[3,2-c]quinoline-2-carboxamide] as the compound, how does the IC50 read?
**A.** The IC50 was 24.7 µM.

**Q.** O=c1c2ccccc2[se]n1-c1ccccc1 [2-Phenyl-benzo[d]isoselenazol-3-one] was tested. Which IC50 did it give?
**A.** Its IC50 is greater than 50 µM.

**Q.** Which IC50 does the source give for CCOc1ccc(-n2c(=O)c3c4c(sc3n(CC(=O)NCc3ccco3)c2=O)CCC4)cc1 [2-(1,3-diketo-2-p-phenetyl-7,8-dihydro-6H-cyclopenta[2,3]thieno[2,4-b]pyrimidin-4-yl)-N-(2-furfuryl)acetamide] here?
**A.** The IC50 was 22.4 µM.

**Q.** CC(C)(C)c1ccc(-c2nnc3sc(-c4ccncc4)nn23)cc1 [3-(4-tert-butylphenyl)-6-(4-pyridinyl)[1,2,4]triazolo[3,4-b][1,3,4]thiadiazole] was tested. Which IC50 did it give?
**A.** Its IC50 is 6.18 µM.

**Q.** Cc1ccc(-c2cc(C(F)F)n3ncc(C(=O)NCc4ccco4)c3n2)cc1 [7-(difluoromethyl)-N-(2-furanylmethyl)-5-(4-methylphenyl)-3-pyrazolo[1,5-a]pyrimidinecarboxamide] was tested. Which IC50 did it give?
**A.** Its IC50 is 15.3 µM.
